Results as given in patent US12152038B2, “Vasopressin receptor antagonists and products and methods related thereto” (Neumora Therapeutics, Inc., priority 2017, dated 2024).
Where a name gives a salt, the structure may show the parent alone.

What follows are molecules tested against T1, human Arginine Vasopressin Receptor 1a (AVPR1a) (Homo sapiens, UniProt P37288) (assay: Vasopressin V1a receptor antagonist assay (FLIPR calcium, CHO-AVPR1a cells)).
T1 construct: expressed in transfected cells; host or cells: CHO (CHO-AVPR1a, kept under G418 selection)
T1 sequence (P37288 whole entry): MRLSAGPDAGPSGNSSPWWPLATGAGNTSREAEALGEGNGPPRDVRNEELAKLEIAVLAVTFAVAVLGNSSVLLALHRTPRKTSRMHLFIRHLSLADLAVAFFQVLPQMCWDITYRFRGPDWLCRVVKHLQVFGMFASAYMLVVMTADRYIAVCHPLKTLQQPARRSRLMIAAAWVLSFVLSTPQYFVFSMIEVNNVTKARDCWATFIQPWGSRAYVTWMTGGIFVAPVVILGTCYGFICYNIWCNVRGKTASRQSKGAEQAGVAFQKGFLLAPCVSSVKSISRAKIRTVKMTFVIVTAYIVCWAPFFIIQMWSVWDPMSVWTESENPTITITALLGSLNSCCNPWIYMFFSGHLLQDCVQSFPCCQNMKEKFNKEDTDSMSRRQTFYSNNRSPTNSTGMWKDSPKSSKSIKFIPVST
Type: cell-based
Method: The purpose of this assay was to determine the inhibitory effect of synthesized compounds on the Vasopressin V1a receptor. The assay was performed in Chinese Hamster Ovary (CHO) cells expressing the human Arginine Vasopressin Receptor 1a (AVPR1a). Arginine Vasopressin (AVP) evokes an increase in intracellular calcium in CHO-AVPR1a cells which is measured in a fluorescence assay on the FLIPR^TETRA using calcium sensitive dyes. Test compounds were assessed for their ability to affect the magnitude of the response to AVP, with antagonists showing a concentration-dependent reduction in the AVP-mediated fluorescence. Compounds were tested in duplicate in a 10-point, 1:3 dilution series starting at a nominal concentration of 3 μM in the assay.
CHO-AVPR1a cells were maintained in routine culture in T175 Flasks at 37° C., 5% CO2. The growth medium consists of Ham's F12 media supplemented with 10% v/v fetal bovine serum, 1× non-essential amino acids, and 0.4 mg/ml Geneticin G418.
On day one, cells were harvested from T175 flasks when they are 80-90% confluent by first washing the cell monolayer with PBS and then dissociated using trypsin 0.05%/EDTA (3 mL for a T175 Flask). The flasks were incubated at room temperature until the cells detached. To the cell suspension, 10 ml of growth media was added and the cell density determined using the Vi-Cell automated cell counter. The cells were spun at 1000 rpm for 3 minutes, then the supernatant was carefully removed and discarded. The cell pellet was re-suspended at 6.0e^5 cells/ml in growth media. 25 μL of cells in growth media was dispensed into each well (15,000 cells per well) of a poly-D-lysine coated black, clear bottomed, 384-well plate. The plates were incubated at 37° C., 5% CO2 overnight.
At the start of each assay day, the potency of AVP was assessed and an EC80 concentration determined for subsequent compound profiling. Assays were performed using a two-step addition protocol on the FLIPR^TETRA; first addition of 5 μl of control or test compound at 10× final in assay buffer with 15 min incubation at 37° C., 5% CO2 followed by 10 μl of AVP at 6× final concentration in assay buffer. Changes in fluorescence were monitored for 3 min after both additions on the FLIPR^TETRA using 470-495 nm excitation and 515-575 nm emission wavelengths. The assay buffer consisted of HBSS (+Ca/+Mg) supplemented with 20 mM HEPES, and for the preparation of the AVP agonist only, 0.1% w/v bovine serum albumin. The assay was initiated by the removal of growth media from the cells and replacement with 45 μl of Calcium-6 dye (Molecular Devices) prepared at 1× in assay buffer. Cells were loaded with dye for 60-90 min at 37° C., 5% CO2 before initiation of the FLIPR^TETRA protocol. […] For compound profiling, test compounds were first serially diluted in DMSO (10-point curve, 1:3 dilutions) then diluted 33.3-fold in assay buffer prior to addition to the dye loaded cells on the FLIPR^TETRA. At the end of the incubation period, 10 μl of AVP in assay buffer containing 0.1% BSA was added at the previously determined EC80 concentration.
In-plate controls for the assay included balovaptan and PF-184563 concentration-response curves as reference V1a antagonists, and an AVP concentration-response curve to confirm the reproducibility of the EC80 used for the compound challenge.
Molecule `COC1CCN(C(=O)N2CC3(C2)CN(c2ccc(F)cn2)C3)c2ccc(Cl)cc21` (stereo not drawn) [16-1, (6-chloro-4-methoxy-3,4-dihydroquinolin-1(2H)-yl)(6-(5-fluoropyridin-2-yl)-2,6-diazaspiro[3.3]heptan-2-yl)methanone] has an IC50 of under 100 nM. In the case of `CC1COc2cc(F)ccc2N1C(=O)N1CC2(C1)CN(c1noc3ccccc13)C2` (single isomer, unassigned) [4-3-A], the IC50 is reported as 100 to 500 nM. `CC1COc2cc(F)ccc2N1C(=O)N1CC2(C1)CN(c1cccnn1)C2` (single isomer, unassigned) [1-62-B] showed an IC50 of under 100 nM. For `CCC1COc2cc(Cl)ccc2N1C(=O)N1CC2(C1)CN(c1ccc(F)cn1)C2` (single isomer, unassigned) [1-55-A], the IC50 was 500 to 1000 nM. With `COc1ccc(N2CC3(CN(C(=O)N4CCOc5cc(Cl)ccc54)C3)C2)cn1` [8-1, (7-chloro-2,3-dihydro-4H-benzo[b][1,4]oxazin-4-yl)(6-(6-methoxypyridin-3-yl)-2,6-diazaspiro[3.3]heptan-2-yl)methanone] the IC50 was 100 to 500 nM. `O=C(N1CC2(C1)CN(c1ncccc1F)C2)N1CCC(O)c2cc(Cl)ccc21` (stereo not drawn) [13-4] showed an IC50 of under 100 nM. For `CC1COc2cc(Cl)ccc2N1C(=O)N1CC2(C1)CN(c1cc(=O)n(C)cn1)C2` (single isomer, unassigned) [20-14-A], the IC50 was at least 1000 nM. In the case of `Cc1ccc(N2CC3(CN(C(=O)N4CCOc5cc(Cl)ccc54)C3)C2)nc1` [1-13], the IC50 is reported as under 100 nM. Molecule `CC1(O)CCN(C(=O)N2CC3(C2)CN(c2ccc(F)cn2)C3)c2ccc(Cl)cc21` (stereo not drawn) [15-1, (6-chloro-4-hydroxy-4-methyl-3,4-dihydroquinolin-1(2H)-yl)(6-(5-fluoropyridin-2-yl)-2,6-diazaspiro[3.3]heptan-2-yl)methanone] has an IC50 of under 100 nM. `O=C(N1CC2(C1)CN(c1ccc(F)cn1)C2)N1CCOc2c1ccc(F)c2F` [9-5] showed an IC50 of under 100 nM. With `O=C(N1CC2(CN(Cc3ccncc3)C2)C1)N1CCOc2cc(Cl)ccc21` [2-1, (7-chloro-2,3-dihydro-4H-benzo[b][1,4]oxazin-4-yl)(6-(pyridin-4-ylmethyl)-2,6-diazaspiro[3.3]heptan-2-yl)methanone] the IC50 was at least 1000 nM. For `CC1COc2cc(F)ccc2N1C(=O)N1CC2(C1)CN(c1cccnn1)C2` (stereo not drawn) [1-62], the IC50 was under 100 nM. Molecule `O=C(N1CC2(C1)CN(c1ccc(F)cn1)C2)N1CCOc2ccccc21` [1-63] has an IC50 of 100 to 500 nM. With `CC1CN(C(=O)N2CC3(C2)CN(c2ccc(F)cn2)C3)c2ccc(F)cc2O1` (stereo not drawn) [9-4] the IC50 was under 100 nM. In the case of `CC1COc2cc(F)ccc2N1C(=O)N1CC2(C1)CN(c1cnccn1)C2` (single isomer, unassigned) [1-65-A], the IC50 is reported as at least 1000 nM. In the case of `CC1COc2cc(Cl)ccc2N1C(=O)N1CC2(C1)CN(c1ncc(F)cn1)C2` (single isomer, unassigned) [18-2-A], the IC50 is reported as under 100 nM. In the case of `Cn1ccnc1N1CC2(CN(C(=O)N3CCOc4cc(Cl)ccc43)C2)C1` [1-54], the IC50 is reported as 100 to 500 nM. In the case of `O=C(N1CC2(C1)CN(c1ccc(F)cn1)C2)N1CCCc2cc(Cl)ccc21` [9-8], the IC50 is reported as under 100 nM. Molecule `Cc1ccnc(N2CC3(CN(C(=O)N4c5ccc(F)cc5OCC4C)C3)C2)c1` (single isomer, unassigned) [20-4-A] has an IC50 of at least 1000 nM. Work on `CC1COc2cc(F)c(F)cc2N1C(=O)N1CC2(C1)CN(c1ccc(F)cn1)C2` (single isomer, unassigned) [19-5-A] yielded an IC50 of 100 to 500 nM. `Cc1cnc(N2CC3(CN(C(=O)N4c5ccc(Cl)cc5OCC4C)C3)C2)cn1` (single isomer, unassigned) [20-5-A] was tested, and the IC50 was under 100 nM. In the case of `Cc1cnc(N2CC3(CN(C(=O)N4CCOc5cc(Cl)ccc54)C3)C2)nc1` [1-37], the IC50 is reported as 100 to 500 nM. `O=C(N1CC2(C1)CN(c1ncc(F)cc1F)C2)N1CCOc2cc(Cl)ccc21` [1-50] showed an IC50 of under 100 nM. `Cc1nccnc1N1CC2(CN(C(=O)N3c4ccc(Cl)cc4OCC3C)C2)C1` (single isomer, unassigned) [20-10-B] was tested, and the IC50 was at least 1000 nM. With `CC1COc2cc(Cl)ccc2N1C(=O)N1CC2(C1)CN(c1cnccn1)C2` (stereo not drawn) [1-58] the IC50 was under 100 nM. `O=C(N1CC2(C1)CN(c1ccncn1)C2)N1CCOc2cc(Cl)ccc21` [1-74] gave an IC50 of 100 to 500 nM. With `O=C(N1CC2(C1)CN(c1ccc(F)cn1)C2)N1CCSc2cc(Cl)ccc21` [8-15] the IC50 was under 100 nM. `N#Cc1cnc(N2CC3(CN(C(=O)N4CCOc5cc(Cl)ccc54)C3)C2)cn1` [1-24] was tested, and the IC50 was 500 to 1000 nM. With `CC1COc2cc(Cl)ccc2N1C(=O)N1CC2(C1)CN(c1cc(=O)n(C)cn1)C2` (stereo not drawn) [20-14] the IC50 was 100 to 500 nM. With `COc1ccc2c(c1)OCC(C)N2C(=O)N1CC2(C1)CN(c1ccc(F)cn1)C2` (single isomer, unassigned) [1-59-A] the IC50 was at least 1000 nM. `CN1CCN(C(=O)N2CC3(C2)CN(c2ccc(F)cn2)C3)c2ccc(F)cc21` [8-8] showed an IC50 of under 100 nM. `O=C(N1CC2(C1)CN(c1ccn3ccnc3c1)C2)N1CCOc2cc(Cl)ccc21` [5-1, (7-chloro-2,3-dihydro-4H-benzo[b][1,4]oxazin-4-yl)(6-(imidazo[1,2-a]pyridin-7-yl)-2,6-diazaspiro[3.3]heptan-2-yl)methanone formate] was tested, and the IC50 was 100 to 500 nM. Work on `CC1COc2cc(F)ccc2N1C(=O)N1CC2(C1)CN(c1cnccn1)C2` (stereo not drawn) [1-65] yielded an IC50 of under 100 nM. Work on `O=C(N1CC2(C1)CN(c1cc(C(F)F)ccn1)C2)N1CCOc2cc(Cl)ccc21` [1-80] yielded an IC50 of under 100 nM. With `O=C(N1CC2(C1)CN(c1ccc(F)cc1)C2)N1CCOc2cc(Cl)ccc21` [1-40] the IC50 was 100 to 500 nM. For `COc1ccnc(N2CC3(CN(C(=O)N4c5ccc(Cl)cc5OCC4C)C3)C2)n1` (single isomer, unassigned) [20-9-A], the IC50 was at least 1000 nM. With `CC1CN(C(=O)N2CC3(C2)CN(c2ccc(F)cn2)C3)c2ccc(Cl)cc2O1` (single isomer, unassigned) [9-3-B] the IC50 was under 100 nM. Molecule `Cc1cnc(N2CC3(CN(C(=O)N4c5ccc(Cl)cc5OCC4C)C3)C2)cn1` (stereo not drawn) [20-5] has an IC50 of under 100 nM. `COc1ccc2c(c1)OCC(C)N2C(=O)N1CC2(C1)CN(c1ccc(F)cn1)C2` (stereo not drawn) [1-59] was tested, and the IC50 was under 100 nM. Molecule `CS(=O)(=O)N1CC2(CN(C(=O)N3CCOc4cc(Cl)ccc43)C2)C1` [10-1, (7-chloro-2,3-dihydro-4H-benzo[b][1,4]oxazin-4-yl)(6-(methylsulfonyl)-2,6-diazaspiro[3.3]heptan-2-yl)methanone] has an IC50 of at least 1000 nM. For `Cn1cc(N2CC3(CN(C(=O)N4CCOc5cc(Cl)ccc54)C3)C2)cn1` [1-11], the IC50 was at least 1000 nM. `CC1COc2cc(Cl)ccc2N1C(=O)N1CC2(C1)CN(c1ncccc1F)C2` (stereo not drawn) [1-57] was tested, and the IC50 was under 100 nM. `O=C(N1CC2(C1)CN(c1ncccc1F)C2)N1CCC(O)c2cc(Cl)ccc21` (single isomer, unassigned) [13-4-A] showed an IC50 of under 100 nM. For `CC1COc2cc(Cl)ccc2N1C(=O)N1CC2(C1)CN(c1nccc(C#N)n1)C2` (single isomer, unassigned) [20-16-A], the IC50 was at least 1000 nM. In the case of `O=C(N1CC2(C1)CN(c1ccc(C(F)(F)F)cn1)C2)N1CCOc2cc(Cl)ccc21` [1-31], the IC50 is reported as 100 to 500 nM. Work on `O=C(N1CC2(C1)CN(c1nccnc1F)C2)N1CCOc2cc(Cl)ccc21` [1-33] yielded an IC50 of under 100 nM. In the case of `Cc1cnnc(N2CC3(CN(C(=O)N4CCOc5cc(Cl)ccc54)C3)C2)c1` [3-1, (7-chloro-2,3-dihydro-4H-benzo[b][1,4]oxazin-4-yl)(6-(5-methylpyridazin-3-yl)-2,6-diazaspiro[3.3]heptan-2-yl)methanone], the IC50 is reported as under 100 nM. With `CCC1COc2cc(Cl)ccc2N1C(=O)N1CC2(C1)CN(c1ccc(F)cn1)C2` (stereo not drawn) [1-55] the IC50 was under 100 nM. With `Cn1ccc(N2CC3(CN(C(=O)N4CCOc5cc(Cl)ccc54)C3)C2)n1` [1-10] the IC50 was 100 to 500 nM. With `N#Cc1ccc(N2CC3(CN(C(=O)N4CCOc5cc(Cl)ccc54)C3)C2)nc1` [1-16] the IC50 was 100 to 500 nM. For `COc1cnc(N2CC3(CN(C(=O)N4CCOc5cc(Cl)ccc54)C3)C2)cn1` [1-23], the IC50 was under 100 nM. With `O=C(N1CC2(C1)CN(c1cncnc1)C2)N1CCOc2cc(Cl)ccc21` [1-17] the IC50 was 100 to 500 nM. In the case of `COc1cccc(N2CC3(CN(C(=O)N4CCOc5cc(Cl)ccc54)C3)C2)n1` [1-2], the IC50 is reported as under 100 nM. Molecule `CC1COc2cc(Cl)ccc2N1C(=O)N1CC2(C1)CN(c1ccc(F)cn1)C2` (stereo not drawn) [1-73] has an IC50 of under 100 nM.
